Laboratory results reported in US12371428B2 (Exelixis, Inc., priority 2019, dated 2025).
Read-outs that look alike come from different tables or passages of the source.

Tests used:
[1] = target: Human KDR (residues 790-1356) (Homo sapiens (Human), UniProt P35968); experiment: Human KDR kinase assay, HTRF KinEase (Example B-2); format: biochemical
Outline: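 Human KDR residues 790-1356 (0.1 ng/well) in buffer with 5 mM MgCl2, 1 mM MnCl2, 1 mM DTT, biotinylated peptide substrate, ATP at Km (4.0 μM), 3% DMSO, 10 compound concentrations; 40 min, room temperature. EDTA stop, streptavidin-XL665/Eu-TK antibody HTRF read 665/620 nm; 4-parameter IC50.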

[2] = target: Human MET (residues 956-1390) (Homo sapiens (Human), UniProt P08581); experiment: Human Met kinase assay, HTRF KinEase (Example D-2); format: biochemical; conditions: read-out: c-Met IC50
Sequence of Human MET (residues 956-1390) (P08581 956-1390): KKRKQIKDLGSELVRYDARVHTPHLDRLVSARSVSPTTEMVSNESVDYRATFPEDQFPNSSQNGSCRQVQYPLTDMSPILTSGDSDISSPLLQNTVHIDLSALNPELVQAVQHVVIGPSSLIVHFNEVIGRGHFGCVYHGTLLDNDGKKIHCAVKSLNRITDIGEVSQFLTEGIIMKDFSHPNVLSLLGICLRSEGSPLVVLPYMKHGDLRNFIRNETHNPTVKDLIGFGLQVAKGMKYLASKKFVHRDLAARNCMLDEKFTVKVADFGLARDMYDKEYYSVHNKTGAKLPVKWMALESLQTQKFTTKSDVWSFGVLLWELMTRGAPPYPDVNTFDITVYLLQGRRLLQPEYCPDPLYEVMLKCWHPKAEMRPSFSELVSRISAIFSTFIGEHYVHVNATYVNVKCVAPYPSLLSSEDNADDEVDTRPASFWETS
Outline: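 MET kinase domain (956-1390), 0.1 ng/well, in buffer with 5 mM MgCl2, 1 mM DTT and 1 mM MnCl2, phosphorylated a biotinylated peptide at ATP Km for 40 min at RT; 10 concentrations, 3% DMSO final. EDTA-stopped HTRF read after 60 min; IC50 from a 4-parameter logistic fit.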

[3] = target: Human MER (residues 528-999) (Homo sapiens (Human), UniProt Q12866); experiment: Human Mer kinase assay, HTRF KinEase (Example C-2); format: biochemical
Sequence of Human MER (residues 528-999) (Q12866 528-999): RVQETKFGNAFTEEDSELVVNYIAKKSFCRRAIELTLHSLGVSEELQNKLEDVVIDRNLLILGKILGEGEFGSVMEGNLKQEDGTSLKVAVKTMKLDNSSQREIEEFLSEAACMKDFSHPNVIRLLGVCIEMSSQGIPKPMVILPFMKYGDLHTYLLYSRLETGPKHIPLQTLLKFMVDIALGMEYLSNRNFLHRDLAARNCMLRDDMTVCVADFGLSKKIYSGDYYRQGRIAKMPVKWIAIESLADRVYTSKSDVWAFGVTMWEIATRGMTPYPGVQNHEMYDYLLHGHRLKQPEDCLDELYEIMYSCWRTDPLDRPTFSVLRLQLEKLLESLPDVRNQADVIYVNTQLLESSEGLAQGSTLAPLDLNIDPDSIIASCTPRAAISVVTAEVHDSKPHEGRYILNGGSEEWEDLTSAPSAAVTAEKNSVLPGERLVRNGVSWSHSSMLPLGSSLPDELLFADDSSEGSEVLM
Outline: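 Recombinant MER 528-999 (1 ng/well) in buffer with 5 mM MgCl2 and 1 mM DTT was reacted with biotinylated peptide and ATP at Km (40 μM) for 60 min at room temperature. EDTA stop with SA-XL665 and Eu3+ TK antibody, then 665/620 nm HTRF read; IC50 from 4-parameter fit.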

[4] = target: Mer (phospho-Mer, MERTK-transfected 293A cells) (Homo sapiens (Human), UniProt Q12866); experiment: Mer autophosphorylation ELISA in transient transfected 293A cells (Example H); format: cell-based; conditions: cellular activity; Mer autophosphorylation ELISA in transient transfected 293A cells
Sequence of Mer (phospho-Mer, MERTK-transfected 293A cells) (Q12866 21-999): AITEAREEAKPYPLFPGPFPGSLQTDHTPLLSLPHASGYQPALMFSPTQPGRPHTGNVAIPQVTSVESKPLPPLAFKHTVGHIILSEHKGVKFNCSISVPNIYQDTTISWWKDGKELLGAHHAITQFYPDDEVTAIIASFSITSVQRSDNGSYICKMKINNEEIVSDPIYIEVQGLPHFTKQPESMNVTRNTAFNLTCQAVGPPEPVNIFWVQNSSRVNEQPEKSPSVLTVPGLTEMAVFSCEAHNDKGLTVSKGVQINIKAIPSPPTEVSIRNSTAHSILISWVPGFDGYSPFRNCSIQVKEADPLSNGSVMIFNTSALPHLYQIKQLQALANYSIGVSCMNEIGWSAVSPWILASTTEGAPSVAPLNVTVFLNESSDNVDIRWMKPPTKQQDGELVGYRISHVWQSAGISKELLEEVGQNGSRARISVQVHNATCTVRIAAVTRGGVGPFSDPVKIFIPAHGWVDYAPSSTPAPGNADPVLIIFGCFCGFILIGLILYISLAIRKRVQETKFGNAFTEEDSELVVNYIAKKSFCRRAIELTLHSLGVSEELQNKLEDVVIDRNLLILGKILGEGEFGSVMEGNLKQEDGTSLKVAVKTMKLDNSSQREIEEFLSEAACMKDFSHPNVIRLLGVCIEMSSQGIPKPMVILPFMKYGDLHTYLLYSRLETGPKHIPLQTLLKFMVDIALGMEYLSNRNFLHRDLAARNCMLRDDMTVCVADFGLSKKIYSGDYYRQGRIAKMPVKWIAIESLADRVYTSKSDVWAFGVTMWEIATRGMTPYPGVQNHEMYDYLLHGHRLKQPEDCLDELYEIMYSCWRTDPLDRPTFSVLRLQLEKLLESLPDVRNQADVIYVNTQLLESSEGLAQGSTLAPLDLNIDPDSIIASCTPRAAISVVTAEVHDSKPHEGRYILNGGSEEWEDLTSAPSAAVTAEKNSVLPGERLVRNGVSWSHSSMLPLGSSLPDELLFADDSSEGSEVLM
Outline: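 293A cells transiently transfected with human MERTK were treated 1 h in serum-free medium with an 8-point compound dilution (0.3% DMSO final). Lysates were assayed by phospho-Mer sandwich ELISA against a phospho-Mer standard; IC50 came from a 4-parameter logistic fit, normalised to DMSO (100%) and reference-inhibitor (0%) controls.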

Sequence of Human KDR (residues 790-1356) (P35968 790-1356): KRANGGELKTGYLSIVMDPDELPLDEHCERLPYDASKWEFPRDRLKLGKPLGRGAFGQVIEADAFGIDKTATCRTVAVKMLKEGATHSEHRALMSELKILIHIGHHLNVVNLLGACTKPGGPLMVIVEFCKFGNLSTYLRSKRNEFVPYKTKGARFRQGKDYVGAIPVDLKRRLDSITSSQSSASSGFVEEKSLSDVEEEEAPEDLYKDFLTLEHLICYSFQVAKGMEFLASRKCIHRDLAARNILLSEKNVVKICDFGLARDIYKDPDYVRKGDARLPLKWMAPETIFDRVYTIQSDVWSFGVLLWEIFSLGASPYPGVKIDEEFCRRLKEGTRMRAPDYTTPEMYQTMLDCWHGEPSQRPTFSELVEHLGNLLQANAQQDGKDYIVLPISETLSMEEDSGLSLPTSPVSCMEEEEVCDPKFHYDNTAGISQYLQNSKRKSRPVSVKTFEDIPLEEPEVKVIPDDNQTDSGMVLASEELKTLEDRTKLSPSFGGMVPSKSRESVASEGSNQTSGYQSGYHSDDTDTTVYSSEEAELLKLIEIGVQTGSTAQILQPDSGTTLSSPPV

SMILES | IC50 ([1]; protocol of Example B-2) [nM] | IC50 ([2]; protocol of Example D-2) [nM] | IC50 ([3]; protocol of Example C-2) [nM] | IC50 [4] [nM] | IC50 ([1]; protocol of Example B-2 (other compounds)) [nM] | IC50 ([2]; protocol of Example D-2 (other compounds)) [nM] | IC50 ([3]; protocol of Example C-2 (other compounds)) [nM]
COc1cc2nccc(Oc3ccc(NC(=O)c4c(C)n(C)cc(-c5ccc(F)cc5C)c4=O)cc3F)c2nc1OC [Compound 481, N-[4-[(6,7-dimethoxy-1,5-naphthyridin-4-yl)oxy]-3-fluorophenyl]-5-(4-fluoro-2-methylphenyl)-1,2-dimethyl-4-oxopyridine-3-carboxamide] | 100 to 300 | < 100 | < 100 | < 100 | – | – | –
COc1cnc2c(Oc3ccc(NC(=O)c4cc(C)nn(-c5ccc(F)cc5)c4=O)cc3F)ccnc2c1 [Compound 521, N-[3-fluoro-4-[(7-methoxy-1,5-naphthyridin-4-yl)oxy]phenyl]-2-(4-fluorophenyl)-6-methyl-3-oxopyridazine-4-carboxamide] | > 300 | < 100 | < 100 | > 300 | – | – | –
COc1cc2nccc(Oc3ccc(NC(=O)c4c(C)ncc(-c5ccc(F)cc5C)c4O)cc3F)c2nc1OC [Compound 479, N-[4-[(6,7-dimethoxy-1,5-naphthyridin-4-yl)oxy]-3-fluorophenyl]-5-(4-fluoro-2-methylphenyl)-4-hydroxy-2-methylpyridine-3-carboxamide] | < 100 | < 100 | < 100 | < 100 | – | – | –
CNc1nccc2c(Oc3ccc(NC(=O)c4cnc(C)n(-c5ccc(F)cc5)c4=O)cc3)ccnc12 [Compound 543, 1-(4-fluorophenyl)-2-methyl-N-[4-[[8-(methylamino)-1,7-naphthyridin-4-yl)oxy]phenyl]-6-oxopyrimidine-5-carboxamide] | > 300 | 100 to 300 | < 100 | < 100 | – | – | –
COc1cc2nccc(Oc3ccc(NC(=O)c4cnc(C)c(-c5ccc(F)cc5)c4O)cc3F)c2nc1C [Compound 541, N-[3-fluoro-4-[(7-methoxy-6-methyl-1,5-naphthyridin-4-yl)oxy]phenyl]-5-(4-fluorophenyl)-4-hydroxy-6-methylpyridine-3-carboxamide] | < 100 | < 100 | < 100 | < 100 | – | – | –
COc1cnc2c(Oc3ccc(NC(=O)c4nn(C)c(C)c(-c5ccc(F)cc5C)c4=O)cc3)ccnc2c1 [Compound 514, 5-(4-fluoro-2-methylphenyl)-N-[4-[(7-methoxy-1,5-naphthyridin-4-yl)oxy]phenyl]-1,6-dimethyl-4-oxopyridazine-3-carboxamide] | < 100 | < 100 | < 100 | < 100 | – | – | –
COc1nc2c(Oc3ccc(NC(=O)c4cnc(C)c(-c5ccc(F)cc5C)c4O)cc3F)ccnc2cc1C [Compound 460, N-[3-fluoro-4-[(6-methoxy-7-methyl-1,5-naphthyridin-4-yl)oxy]phenyl]-5-(4-fluoro-2-methylphenyl)-4-hydroxy-6-methylpyridine-3-carboxamide] | > 300 | 100 to 300 | < 100 | < 100 | – | – | –
COCc1nc(C)c(-c2ccc(F)cc2)c(O)c1C(=O)Nc1ccc(Oc2ccnc3ccc(OC)cc23)c(F)c1 [Compound 525, N-[3-fluoro-4-(6-methoxyquinolin-4-yl)oxyphenyl]-5-(4-fluorophenyl)-4-hydroxy-2-(methoxymethyl)-6-methylpyridine-3-carboxamide] | > 300 | 100 to 300 | < 100 | < 100 | – | – | –
COc1cc2nccc(Oc3ccc(NC(=O)c4c(C)c(C)nn(-c5ccc(F)cc5)c4=O)cc3F)c2nc1OC [Compound 524, N-[4-[(6,7-dimethoxy-1,5-naphthyridin-4-yl)oxy]-3-fluorophenyl]-2-(4-fluorophenyl)-5,6-dimethyl-3-oxopyridazine-4-carboxamide] | 100 to 300 | 100 to 300 | < 100 | < 100 | – | – | –
COc1cc2ncnc(Oc3ccc(NC(=O)c4c5n(cc(-c6ccc(F)cc6)c4=O)CCC5)cc3F)c2cc1OC [Compound 406, N-[4-(6,7-dimethoxyquinazolin-4-yl)oxy-3-fluorophenyl]-6-(4-fluorophenyl)-7-oxo-2,3-dihydro-1H-indolizine-8-carboxamide] | – | – | – | < 100 | > 300 | < 100 | < 100
COCCOc1cnc2c(Oc3ccc(NC(=O)c4ccc(C)n(-c5ccc(F)cc5)c4=O)cc3F)ccnc2c1 [Compound 552, N-[3-Fluoro-4-[[7-(2-methoxyethoxy)-1,5-naphthyridin-4-yl]oxy]phenyl]-1-(4-fluorophenyl)-6-methyl-2-oxopyridine-3-carboxamide] | < 100 | < 100 | < 100 | < 100 | – | – | –
COc1cc2nccc(Oc3ccc(NC(=O)c4cn(C)c(CF)c(-c5ccc(F)cc5C)c4=O)cc3F)c2nc1OC [Compound 556, N-[4-[(6,7-Dimethoxy-1,5-naphthyridin-4-yl)oxy]-3-fluorophenyl]-6-(fluoromethyl)-5-(4-fluoro-2-methylphenyl)-1-methyl-4-oxopyridine-3-carboxamide] | > 300 | 100 to 300 | < 100 | < 100 | – | – | –
COc1cc2nccc(Oc3ccc(NC(=O)c4cn(C)cc(-c5ccc(F)cc5C)c4=O)cc3F)c2nc1OC [Compound 503, N-[4-[(6,7-dimethoxy-1,5-naphthyridin-4-yl)oxy]-3-fluorophenyl]-5-(4-fluoro-2-methylphenyl)-1-methyl-4-oxopyridine-3-carboxamide] | < 100 | < 100 | < 100 | < 100 | – | – | –
COc1cc2nccc(Oc3ccc(NC(=O)c4nn(C)c(C)c(-c5ccc(F)cc5C)c4=O)cc3F)c2nc1OC [Compound 512, N-[4-[(6,7-dimethoxy-1,5-naphthyridin-4-yl)oxy]-3-fluorophenyl]-5-(4-fluoro-2-methylphenyl)-1,6-dimethyl-4-oxopyridazine-3-carboxamide] | < 100 | < 100 | < 100 | < 100 | – | – | –
Cc1cc(F)ccc1-c1c(C)nc(C)c(C(=O)Nc2ccc(Oc3ccnc4cccnc34)c(F)c2)c1O [Compound 505, 5-(4-fluoro-2-methylphenyl)-N-[3-fluoro-4-(1,5-naphthyridin-4-yloxy)phenyl]-4-hydroxy-2,6-dimethylpyridine-3-carboxamide] | > 300 | < 100 | 100 to 300 | 100 to 300 | – | – | –
COc1cc2nccc(Oc3ccc(NC(=O)c4cnc(SC(C)C)n(-c5ccc(F)cc5)c4=O)cc3)c2cc1OC [Compound 539, N-[4-(6,7-dimethoxyquinolin-4-yl)oxyphenyl]-1-(4-fluorophenyl)-6-oxo-2-propan-2-ylsulfanylpyrimidine-5-carboxamide] | 100 to 300 | 100 to 300 | < 100 | < 100 | – | – | –
CCn1cc(C(=O)Nc2ccc(Oc3ccnc4cc(OC)c(OC)nc34)cc2)c(=O)c(-c2ccc(F)cc2)c1CF [Compound 558, N-[4-[(6,7-Dimethoxy-1,5-naphthyridin-4-yl)oxy]phenyl]-1-ethyl-6-(fluoromethyl)-5-(4-fluorophenyl)-4-oxopyridine-3-carboxamide] | > 300 | 100 to 300 | < 100 | < 100 | – | – | –
